Patent US5614548A, “Quaternary amine containing ether or ester lipid derivatives and therapeutic compositions” (priority 1994, dated 1997)
Several values for one entry are separate records, joined by “and”; a condition that tells them apart may be missing. Equal values may be shown once. Read-outs that look alike come from different tables or passages of the source.

Legend:
KB cells = experiment: Cytostatic activity on KB cells; assay type: cell-based; details: Homo sapiens; KB cells, after controls doubled three times; read-out: IC50 KB
Method: (§1) All cells were grown in Eagle's minimum essential medium supplemented with 10% fetal bovine serum with the exception of HL-60 and K562-4 cells which were grown in RPMI 1640 medium supplemented with 10% fetal bovine serum. The KB and MH1 C1 cells, from a human nasopharyngeal carcinoma and rat hepatoma, respectively, were from American Type Culture Collection. The ChaGo cells, a human lung carcinoma, was generously provided by Dr. A. H. Tashjian. The human promyeloblastic leukemia cells, K562-4 were kindly supplied by Dr. Bismarck Lozzio. HL-60 cells, a human promyelocytic leukemia, and P388 cells, a mouse leukemia, were obtained from Dr. Y.-C. Cheng. The 77 cells were put into culture by us by excising the 7777, Morris hepatoma from a rat graciously supplied by the late Dr. H. P. Morris.
(§2) Cells were transferred or removed from monolayers for counting after a one or two minute incubation with 0.02% sodium ethylenediamine tetraacetate in phosphate-buffered saline to dislodge the cells. Flasks were seeded at a density of 1×10^3 cells per cm^2 or 2×10^4 per milliliter for suspension cultures. The HL-60 and K562-4 suspension cultures were used about 24 hours after seeding. The compounds to be tested were diluted to various concentrations and added to the monolayer cultures. All of the test compounds were dissolved in 10% dimethyl sulfoxide (DMSO) at concentrations that would give a final DMSO concentration of 0.1%. Control flasks contained 0.1% DMSO. Control cell replication was followed until approximately three doublings had occurred, and then all of the treated cells were counted.
(§3) The KB cells represented cells with low alkyl cleavage activity (less than the detectable level of 0.1-0.2 units per milligram protein by our assay procedure) and the 77 cells represented cells similar to normal cells with relatively high alkyl cleavage activity (1.6 units per milligram of protein). Our value for the cleavage activity of cultured 77 cells agrees well with the value of 1.4 units per milligram of protein reported by Soodsma et al, Cancer Res. 30, 309 (1970), for freshly excised 7777 Morris hepatoma tissue. In further confirmation of our assay procedure, we obtained a value of 12.6±4.1 units per milligram of protein in excised rat liver compared to 7.3 units per milligram of protein in rat liver measured by Soodsma et al.

77 cells = experiment: Cytostatic activity on 77 cells; assay type: cell-based, rat; details: for IC50: 77 cells, after controls doubled three times; for 77/KB: ratio of IC50 values ± standard error of the quotient
Method: as §1, §2, §3

K562-4 cells = experiment: Cytostatic activity on K562-4 cells; assay type: cell-based; details: Homo sapiens; K562-4 (printed X562-4)
Method: as §1, §2

MH1 C1 cells = experiment: Cytostatic activity on MH1 C1 cells; assay type: cell-based, rat
Method: as §1, §2

ChaGo cells = experiment: Cytostatic activity on ChaGo cells; assay type: cell-based, human
Method: as §1, §2

[1] = system: HL60 human leukemia cell line; experiment: HL60 cell growth inhibition (trypan blue, 48 h); assay type: cell-based; details: for IC50: HL60, 48 hours
Method: A number of the compounds disclosed herein have been tested against the HL60 human leukemia cell line to assess their cytotoxic potential. These analogs were investigated in parallel with ET-18-OMe which was used as the reference compound. The methodologies used in this investigation were the same as described in A. Noseda, M. Berens, C. Piantadosi, and E. J. Modest, Lipids 22, 878-883, 1987. In brief, HL60 cells at a concentration of […] were incubated in wells with one milliliter medium with the experimental drug in parallel with the same concentration of cells with ET-18-OMe (standard) or EtOH (control). After 48 hours of incubation the cells were counted using the trypan blue dye exclusion technique to determine the effect of the drug on cell growth. The experimental drug and ET-18-OMe were tested at the same concentrations, e.g., 10, 5, 2.5 and 1.25 μM.

HIV-1 [2] = experiment: HIV-1 plaque assay, inhibitor added 30 minutes before infection; assay type: cell-based, human immunodeficiency virus type 1 (HIV-1)
Text: (§4) Dextran sulfate was used as a positive control. […] Plaques were counted at five days after infection.
(§5) By way of further background, in our assay HIV-1 syncytial plaques are seen as large, multicellular foci (10 to 25 nuclei/syncytium) that appear either brown and granular or clear. Since the number of HIV-1 syncytial plaques correlates with reverse transcriptase (RT) and p24 core antigen activity in the HIV-1 infected cell overlay fluids, the syncytial plaque assay can be used to quantify the amount of infectious virus. Reverse transcriptase activity was assayed according to a described procedure (B. J. Poeisz et al., Proc. Natl. Acad. Sci. (U.S.A.) […], 7415 (1980)). The activity of p24 core antigen induced by HIV-1 infection of CEM-SS cells was measured spectrophotometrically using the commercial Abbott EIA.
(§6) Compound E inhibited HIV-1 plaque count 43%, 83%, and 91% at concentrations of 0.2, 0.4, and 2.0 μM, respectively, compared to untreated controls. […] In other experiments addition of 0.2, 0.4 and 2.0 μM Compound E starting sixty minutes after HIV-1 infection inhibited HIV-1 plaque formation 28%, 59% and 97% respectively, compared to untreated controls.

HIV-1 [3] = experiment: HIV-1 plaque assay, inhibitor added 60 minutes after infection; assay type: cell-based, human immunodeficiency virus type 1 (HIV-1)
Text: as §4, §5, §6
(§7) Next investigated were the correlations of EL analog structure with anti-HIV-l and anti-cell growth. The experimental method used six serial two-fold dilutions of EL that spanned concentrations above and below a concentration that inhibits HIV-1 plaque count, cell growth (^3 H-TdR uptake into cell DNA) or in vitro PKC activity by 50% (inhibitory concentration50 =IC50) compared to an appropriate mock treated control. Table 7 summarizes data on IC50 of phosphorus and non-phosphorus compounds for HIV-1 plaque formation and cell growth.
^1 Serial 2fold dilutions of compounds are used. HIV1 plaque formatio
is measured in CEMSS cell monolayers by having compound present starting
sixty minutes after virus infection. IC50 values for HIV1 plaque
formation are x ± one SD., N = 4. CEMSS cell growth is measured in […]

CEM-SS cells = experiment: CEM-SS cell growth (3H-TdR uptake); assay type: cell-based; details: Homo sapiens, 48 hours, N = 3, read-out: Inhibitory Concentration50 CEM-SS Cell Growth
Text: as §7
formation are x ± one SD., N = 4. CEMSS cell growth is measured in
suspension cultures by treating the cells with compound for 48 hours at
37° C. and then adding 1 μCi of ^3 HTdR (S.A. = 20 Ci/mmole
for 8 hours at 37° C. to measure DNA synthesis. IC50 values
for CEMSS growth are x of a representative experiment, N = 3.

HIV-1 [4] = experiment: Infectious HIV-1 multiplication (plaque forming units); assay type: cell-based, human immunodeficiency virus type 1 (HIV-1); details: for infectious virus production: in words; for activity at 0.2 µM / activity at 0.4 µM / activity at 2 µM: read-out: Plaque Forming Units, % of Control
Method: (§8) In brief, CEM-SS cells were infected with HIV-1. At various times after infection (3, 6, 8, 10, 13 days) the overlay fluids were replaced with fresh medium. Overlay fluids replaced on days 8, 10 and 13 were saved at -80° C. to measure HIV-1 plaque forming units according to our described protocol above and RT activity (described by Poiesz et al., Proc. Natl. Acad. Sci. U.S.A. 77, 7415 (1980). Results are given in Table 8 below.

reverse transcriptase = experiment: Reverse transcriptase activity in HIV-1 infected CEM-SS cells; assay type: cell-based, human immunodeficiency virus type 1 (HIV-1); details: for reverse transcriptase activity: in words; for activity at 0.2 µM / activity at 0.4 µM / activity at 2 µM: Human immunodeficiency virus 1, CEM-SS, read-out: RT Activity, % of Control
Method: as §5, §8

[5] = Human immunodeficiency virus 1, 192 h, day 8
[6] = Human immunodeficiency virus 1, 240 h, day 10
[7] = Human immunodeficiency virus 1, 312 h, day 13

Q: What does the source list for `CCCCCCCCCCCCCCCCCCOCCC[N+](C)(C)CCO.[I-]` [XIII, 3-octadecyloxy-N,N-dimethyl-N-β-hydroxyethyl-1-propyl ammonium iodide]?
A: IC50 (KB cells): 700 ± 80 nM; IC50 (77 cells): 2500 ± 900 nM; 77/KB (77 cells): 4.3 ± 1.60; IC50 (K562-4 cells): 1400 nM; sensitivity of MH1 C1 cells relative to 77 cells (MH1 C1 cells; MH1 C1 vs 77 cells): two to three times less sensitive to growth inhibition than 77 cells; IC50 (MH1 C1 cells; Rattus norvegicus, MH1C1, MH1 C1): 2900 nM

Q: With `CCCCCCCCCCCCCCCCCCOCC(O)C[N+](C)(C)CCO.[I-]` (racemic) [X, (±)-3-octadecyloxy-2-hydroxy-N,N-dimethyl-N-β-hydroxyethyl-1-propyl ammonium iodide] as the molecule, how does the IC50 (KB cells) read?
A: 350 ± 50 nM

Q: And the IC50 (77 cells)?
A: 1330 ± 400 nM

Q: What about the 77/KB (77 cells) of the same molecule?
A: 2.9 ± 0.96

Q: And the IC50 (ChaGo cells)?
A: 2800 nM

Q: What about the IC50 (ChaGo cells; Homo sapiens) of the same molecule?
A: 1700 nM

Q: What about the IC50 (K562-4 cells) of the same molecule?
A: 2500 nM

Q: With `CCCCCCCCCCCCCCCCOCC(C[N+](C)(C)CCO)OC(C)=O.[I-]` (racemic) [XI, (±)-3-hexadecyloxy-2-acetoxy-N,N-dimethyl-N-β-hydroxyethyl-1-propyl ammonium iodide] as the molecule, how does the IC50 (KB cells) read?
A: 430 ± 50 nM

Q: What about the IC50 (77 cells) of the same molecule?
A: 1350 ± 640 nM

Q: And the 77/KB (77 cells)?
A: 3.1 ± 1.51

Q: What about the IC50 (ChaGo cells; Homo sapiens) of the same molecule?
A: 1200 nM

Q: And the IC50 (K562-4 cells)?
A: 3500 nM

Q: Which results are given for `CCCCCCCCCCCCCCCCCCOCC(COP(=O)([O-])OCC[N+](C)(C)C)OC` (racemic) [ET-18-OMe, (±)-1-O-octadecyl-2-O-methylglycero-3-phosphocholine, reference compound]?
A: IC50 ([1]; ET-18-OMe reference run in parallel with the analog of the line, 2880 min, read-out: ID50, ET-18-OMe): 1900 nM and 2300 nM and 2200 nM; cytotoxic activity against HL60 ([1]; HL60, in words): shows an activity that is consistent with previous reports against the cell line tested; IC50 ([1]; Homo sapiens, HL-60, 48 h, ET-18-OMe reference run in parallel with the analog of the line, read-out: ID50, ET-18-OMe): 1700 nM; IC50 ([1]; Homo sapiens, HL-60, 48 h, read-out: ID50 (the source's name)): 2500 nM; inhibition at 0.2 µM (HIV-1 [2]; Human immunodeficiency virus 1, 0.2 μM, 30 minutes before infection, Table 6): 0%; inhibition at 0.4 µM (HIV-1 [2]; Human immunodeficiency virus 1, 0.4 μM, 30 minutes before infection, Table 6, read-out: Inhibition (%)): 9%; inhibition at 2 µM (HIV-1 [2]; Human immunodeficiency virus 1, 2.0 μM, 30 minutes before infection, Table 6): 45%; antiviral activity (HIV-1 plaque formation) (HIV-1 [2]; added before or after infection, in words): antiviral activity; anti-HIV-1 activity (HIV-1 [3]; HIV-1 plaque formation, in words): potent anti-HIV activity; inhibition at 2 µM (HIV-1 [3]; Human immunodeficiency virus 1, 1 h): 64%; inhibition at 0.2 µM (HIV-1 [3]; Human immunodeficiency virus 1, 1 h, 0.2 μM, 60 minutes after infection): 0%; inhibition at 0.4 µM (HIV-1 [3]; Human immunodeficiency virus 1, 1 h, 0.4 μM, 60 minutes after infection): 0%; IC50 (HIV-1 [3]; Human immunodeficiency virus 1, CEM-SS monolayers, compound from sixty minutes after infection, N = 4, read-out: Inhibitory Concentration50 HIV-1 Plaque Formation): 1400 ± 450 nM; IC50 (CEM-SS cells): 4400 nM; infectious virus production (HIV-1 [4]; 13 days): infectious virus production is still inhibited; activity at 0.2 µM (HIV-1 [4]; [5]): 395%; activity at 0.4 µM (HIV-1 [4]; [5]): 25%; activity at 2 µM (HIV-1 [4]; [5]): 0%; activity at 0.2 µM (HIV-1 [4]; [6]): 287%; activity at 0.4 µM (HIV-1 [4]; [6]): 30%; activity at 2 µM (HIV-1 [4]; [6]): 33%; activity at 0.2 µM (HIV-1 [4]; [7]): 89%; activity at 0.4 µM (HIV-1 [4]; [7]): 35%; activity at 2 µM (HIV-1 [4]; [7]): 30%; infectious virus production (HIV-1 [4]; between 8 and 10 days): markedly inhibit infectious virus production; reverse transcriptase activity (reverse transcriptase; 13 days): reverse transcriptase activity increases; activity at 0.2 µM (reverse transcriptase; 192 h, day 8): 54%; activity at 0.4 µM (reverse transcriptase; 192 h, day 8): 15%; activity at 2 µM (reverse transcriptase; 192 h, day 8): 6%; activity at 0.2 µM (reverse transcriptase; 240 h, day 10): 192%; activity at 0.4 µM (reverse transcriptase; 240 h, day 10): 90%; activity at 2 µM (reverse transcriptase; 240 h, day 10): 6%; activity at 0.2 µM (reverse transcriptase; 312 h, day 13): 94%; activity at 0.4 µM (reverse transcriptase; 312 h, day 13): 161%; activity at 2 µM (reverse transcriptase; 312 h, day 13): 174%; reverse transcriptase activity (reverse transcriptase; between 8 and 10 days): markedly inhibit infectious virus production and reverse transcriptase activity in a dose-dependent manner
